From US6723708B2, “Use of lithium (Li+) for the preparation of a composition for transfection of a polynucleotide into a cell and compositions useful in gene therapy” (Transgene S.A., priority 1999, dated 2004)

Test system: tibialis anterior muscles
Experiment: Intramuscular transfection of plasmid pTG11033 with LiCl, luciferase activity in muscle extracts
Format: in vivo, C57BL/10 mice
Settings: pTG11033 25 μg/muscle intramuscular with LiCl 0.1, 1, 10 mM; measured 7 days after injection; versus NaCl 0.9% control
Procedure: Plasmid DNA (pTG11033: CMV promoter, β-globin intron, luciferase cassette—WO 98/34910) was prepared according to Bischoff et al., Analytical Biochemistry 254 (1997), 69-81. Prior to intramuscular injection the tested molecules were mixed with the plasmid DNA preparation. 25 μg of plasmid DNA were injected per muscle into 5 to 10 week-old C57BL/10 mice. The 2 tibialis anterior (right and left) muscles were injected (each muscle was considered as a sample). Furthermore, for each condition, both the lowest and highest luciferase acitvity values were omitted, which means number of sample per condition=(2×number of mice per condition)−2.
One week after injection of the composition, the mice were killed and the tibialis anterior muscles were retrieved and frozen. Luciferase activity was quantified on whole muscle extracts using a conventional measurement kit (Luciferase Assay System, Promega). Briefly, muscles were ground separately and diluted in 200 μl of reporter lysis buffer (Promega). 10 μl-samples were placed in 96 well-plates and mixed with 100 μl of substrate. Luciferase activity was expressed as number of RLU emitted per minute, per mg of protein.
Protein was measured on 10 μl samples using a VCA Protein Assay kit (Pierce).
In this example, the stock solution of plasmid pTG11033 was prepared in TE buffer (Tris 10 mM—EDTA 1 mM) at a nucleic acid concentration of […]. […]

[Cl-].[Li+] [LiCI, lithium chloride]
increase of luciferase activity in the injected muscles: around 5 times
